Experimental data as given in patent publication US20150105383A1, “HDAC Inhibitors, Alone Or In Combination With PI3K Inhibitors, For Treating Non-Hodgkin's Lymphoma” (Acetylon Pharmaceuticals, Inc., priority 2013, published 2015).
“Also recorded” adds a separate entry of the source.

Columns and labels:
[1] = system: Jeko1 or Mino lymphoma cells; experiment: Apoptosis by flow cytometry, statements for the cell lines together; type: cell-based, human; conditions: 4 days; for cellular apoptosis: Compound A or B plus a PI3Ki, lymphoma cells; for apoptosis / percentage of apoptotic cells: Jeko1 or Mino, relative to control cells (DMSO), Compound A or B 2-3 μM, GDC-0941 0.075-2 μM, CAL-101 2 μM
Description: Jeko1 (FIG. 4A and FIG. 4B) or Mino (FIG. 4C) lymphoma cells were exposed to drug for 4 days, and apoptosis was assessed by flow cytometry by measuring Annexin V binding and cellular permeability to propidium iodide. The relative fraction of cells that were live, in early apoptosis, in late apoptosis, or dead was then estimated. The cells were treated with DMSO, Compound A or B (2-3 μM), GDC-0941 (0.075-2 μM), or the combination of Compound A or B (2-3 μM) with GDC-0941 (0.075-2 μM) on the induction of apoptosis. Alternatively, cells were treated with DMSO, Compound A or B (2 μM), CAL-101 (2 μM), or the combination of Compound A or B (2 μM) with CAL-101 (2 μM) before measuring induction of apoptosis.

[2] = system: Mino, Jeko1, Granta-519, U2932 and SUDHL16 cells; experiment: MTS cell viability, dose-matrix combination of HDAC6 inhibitor and PI3K inhibitor (Fa-CI, Chou-Talalay); type: cell-based, human; conditions: HDAC6 inhibitor in combination with a PI3K inhibitor (GDC-0941 or GS-1101/CAL-101), 48 hr
Description: Human lymphoma cell lines were selected that represented the most common subtypes of NHL. For Mantle Cell Lymphoma (MCL) Mino, Jeko1, and Granta-519 cells were utilized, while U2932 and SUDHL16 cells represented the activated B cell (ABC) and germinal center (GC) subtypes of diffuse large B cell lymphoma (DLBCL), respectively. Briefly, cells were seeded in 384-well plates and treated in quadruplicate in a dose-matrix format with an HDAC6 inhibitor (Compound A, Compound B, or Compound C) in combination with a PI3K inhibitor (GDC-0941 or GS-1101/CAL-101). After incubating these cells for 48 hr, total cell viability was assessed via an MTS assay (Aqueous One, Promega). The fraction affected (Fa) was subsequently determined for each dose combination and the combination index (CI) was assessed using the method of Chou-Talay.

[3] = system: Jeko1, Mino or Granta-519 lymphoma cells; experiment: Cell cycle distribution by flow cytometry, statements for all cell lines together; type: cell-based, human; conditions: Compound A or B 2 μM and/or PI3K inhibitor, 4 days
Description: The relative fraction of cells in each stage of the cell cycle (G0/G1, S, and G2/M), as well as the fraction of dead cells (Sub G1) was then estimated. Cells were treated with DMSO, Compound A or B (2 μM), GDC-0941 (0.075-0.5 μM), or the combination of Compound A or B (2 μM) with GDC-0941 (0.075-0.5 μM) on cell cycle inhibition. Alternatively, cells were treated with DMSO, Compound A or B (2 μM), CAL-101 (1-2 μM), or the combination of Compound A or B (2 μM) with CAL-101 (1-2 μM) before measuring effects on cell cycle inhibition.

[4] = relative to start of dosing; GDC-0941 100 mg/kg PO QD, Compound A 30 mg/kg IP QD; five days per week for 3 cycles
Description: Percent body weight change was determined relative to the start of dosing, and the mean change±SD was plotted. All treatments were dosed five days per week for 3 cycles.

Row | SMILES | cellular apoptosis [1] | apoptosis / percentage of apoptotic cells [1] | synergy in decreasing lymphoma cell viability [2] | cell cycle progression [3] | body weight change [4]
1 | O=C(CCCCCCNC(=O)c1cnc(N(c2ccccc2)c2ccccc2Cl)nc1)NO [Compound B, 2-((2-chlorophenyl)(phenyl)amino)-N-(7-(hydroxyamino)-7-oxoheptyl)pyrimidine-5-carboxamide] | synergistic increases in cellular apoptosis | small increase in apoptosis relative to control cells | synergistic decreases in lymphoma cell viability | decreased cell cycle progression | 
2 | O=C(NO)c1cnc(NC2(c3cccc(F)c3)CCCCC2)nc1 [Compound C, 2-((1-(3-fluorophenyl)cyclohexyl)amino)-N-hydroxypyrimidine-5-carboxamide] |  |  | synergistic decreases in lymphoma cell viability |  | 
3 | CS(=O)(=O)N1CCN(Cc2cc3nc(-c4cccc5[nH]ncc45)nc(N4CCOCC4)c3s2)CC1 [GDC-0941, 2-(1H-indazol-4-yl)-6-(4-methanesulfonyl-piperazin-1-ylmehtyl)-4-morpholin-4-yl-thienol[3,2-d]pyrimidine] |  | did not result in increased cell death |  |  | complete recovery after minimal body weight loss; also recorded: low level body weight loss was recovered by the end of the treatment period
4 | O=C(CCCCCCNC(=O)c1cnc(N(c2ccccc2)c2ccccc2)nc1)NO [Compound A, 2-(diphenylamino)-N-(7-(hydroxyamino)-7-oxoheptyl) pyrimidine-5-carboxamide] | synergistic increases in cellular apoptosis | small increase in apoptosis relative to control cells | synergistic decreases in lymphoma cell viability | decreased cell cycle progression | 
